Read-outs that look alike come from different tables or passages of the source.
Key:
[1] = Moisture balance (moisture sorption-desorption analysis); format: physicochemical; conditions: for post-MB XRPD form: after moisture balance
Description: FIG. 6. Moisture sorption-desorption analysis of metaxalone Form A. FIG. 10. Moisture sorption-desorption analysis of metaxalone Form B.

[2] = Storage stability of solid amorphous metaxalone; format: physicochemical
Protocol: A glass vial containing metaxalone Form A was placed in a silicon oil bath at 155° C. Once the solids had melted, the vial was quickly cooled in a dry ice/acetone bath (about −78° C.). Glassy solids resulted.

[3] = pH ˜1.5; cited from earlier work

MB (moisture balance) result [1] | post-MB XRPD form [1] | stability against conversion to a crystalline form when stored [2] | stability against conversion to a crystalline form when stored ([2]; listed as solid amorphous metaxalone) | Compound | solubility at low pH [3]
nonhygroscopic solid | Form A |  |  | Cc1cc(C)cc(OCC2CNC(=O)O2)c1 (stereo not shown) [Metaxalone Form A, 5-(3′,5′-dimethylphenoxy)methyl-2-oxazolidinone] | 
 |  | produce crystalline material | not stable | Cc1cc(C)cc(OCC2CNC(=O)O2)c1 (stereo not shown) [Solid Amorphous Metaxalone, 5-(3′,5′-dimethylphenoxy)methyl-2-oxazolidinone] | 
non-hygroscopic | Form B |  |  | Cc1cc(C)cc(OCC2CNC(=O)O2)c1 (stereo not shown) [Metaxalone Form B, 5-(3′,5′-dimethylphenoxy)methyl-2-oxazolidinone] | 
 |  |  |  | Cc1cc(C)cc(OCC2CNC(=O)O2)c1 (stereo not shown) [Crystalline metaxalone, 5-(3′,5′-dimethylphenoxy)methyl-2-oxazolidinone] | insoluble
